From PubChem BioAssay AID1963865 (Molecular Pharmacology Branch, DTP, NCI, 2024)

Tested on: KRAS PDC multicell spheroid viability
Test: Anticancer human tumor 825966-067-R-J1-PDC patient-derived colon carcinoma cell line growth inhibition [KRAS2]
Conditions: for IC50: curve of first compound; for viability, T/C: stronger effect = lower value; active = viability on the fitted dose curve at most 10% of control; inactive = the rest
Summary of the method: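 KRAS-mutant tumor cells were grown as spheroids with HUVEC endothelial cells and human MSCs as stroma. Targeted agents were tested alone and with KRAS pathway inhibitors. Doses started at or near clinical Cmax, or 10 microM, descending half-log.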

[1] = second compound 0.1 µM, first compound 0.0316 µM
[2] = second compound 0.316 µM, first compound 0.0316 µM
[3] = second compound 1 µM, first compound 0.0316 µM
[4] = second compound 3.16 µM, first compound 0.0316 µM
[5] = second compound 10 µM, first compound 0.0316 µM
[6] = second compound 0.1 µM, first compound 0.1 µM
[7] = second compound 0.1 µM, first compound 0.316 µM
[8] = second compound 0.1 µM, first compound 1 µM
[9] = second compound 0.1 µM, first compound 3.16 µM
[10] = second compound 0.1 µM, first compound 10 µM
[11] = second compound 0.316 µM, first compound 0.1 µM
[12] = second compound 0.316 µM, first compound 0.316 µM
[13] = second compound 0.316 µM, first compound 1 µM
[14] = second compound 0.316 µM, first compound 3.16 µM
[15] = second compound 0.316 µM, first compound 10 µM
[16] = second compound 1 µM, first compound 0.1 µM
[17] = second compound 1 µM, first compound 0.316 µM
[18] = second compound 1 µM, first compound 1 µM
[19] = second compound 1 µM, first compound 3.16 µM
[20] = second compound 1 µM, first compound 10 µM
[21] = second compound 3.16 µM, first compound 0.1 µM
[22] = second compound 3.16 µM, first compound 0.316 µM
[23] = second compound 3.16 µM, first compound 1 µM
[24] = second compound 3.16 µM, first compound 3.16 µM
[25] = second compound 3.16 µM, first compound 10 µM
[26] = second compound 10 µM, first compound 0.1 µM
[27] = second compound 10 µM, first compound 0.316 µM
[28] = second compound 10 µM, first compound 1 µM
[29] = second compound 10 µM, first compound 3.16 µM
[30] = second compound 10 µM, first compound 10 µM
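Note: spheroids exposed to compounds for 7 days.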
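Throughout, for viability, T/C: 100% = DMSO vehicle control viability.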

CC(=O)Nc1cccc(-n2c(=O)n(C3CC3)c(=O)c3c(Nc4ccc(I)cc4F)n(C)c(=O)c(C)c32)c1 + CNCc1ccccc1-c1csc(C(C)Nc2nc(C)nc3cc(OC)c(OC)cc23)c1
17.1 nM: IC50 (second compound 1 µM)
27.5 nM: IC50 (second compound 0.316 µM)
inactive: viability, T/C (second compound 0.1 µM, first compound 0.0001 µM) 89.5% | viability, T/C (second compound 0.1 µM, first compound 0.000316 µM) 107% | viability, T/C (second compound 0.1 µM, first compound 0.001 µM) 108% | viability, T/C (second compound 0.1 µM, first compound 0.00316 µM) 107% | viability, T/C (second compound 0.1 µM, first compound 0.01 µM) 92.9% | viability, T/C [1] 35.7% | viability, T/C (second compound 0.316 µM, first compound 0.0001 µM) 88.3% | viability, T/C (second compound 0.316 µM, first compound 0.000316 µM) 97.9% | viability, T/C (second compound 0.316 µM, first compound 0.001 µM) 105% | viability, T/C (second compound 0.316 µM, first compound 0.00316 µM) 108% | viability, T/C (second compound 0.316 µM, first compound 0.01 µM) 106% | viability, T/C [2] 42.9% | viability, T/C (second compound 1 µM, first compound 0.0001 µM) 96.1% | viability, T/C (second compound 1 µM, first compound 0.000316 µM) 98.2% | viability, T/C (second compound 1 µM, first compound 0.001 µM) 112% | viability, T/C (second compound 1 µM, first compound 0.00316 µM) 92.2% | viability, T/C (second compound 1 µM, first compound 0.01 µM) 78.5% | viability, T/C [3] 18.1% | viability, T/C (second compound 3.16 µM, first compound 0.0001 µM) 28.4% | viability, T/C (second compound 3.16 µM, first compound 0.000316 µM) 51.9% | viability, T/C (second compound 3.16 µM, first compound 0.001 µM) 16.4%
active: viability, T/C (second compound 3.16 µM, first compound 0.00316 µM) 0.36% | viability, T/C (second compound 3.16 µM, first compound 0.01 µM) 0.15% | viability, T/C [4] 0.26% | viability, T/C (second compound 10 µM, first compound 0.0001 µM) 0.16% | viability, T/C (second compound 10 µM, first compound 0.000316 µM) 0.14% | viability, T/C (second compound 10 µM, first compound 0.001 µM) 0.13% | viability, T/C (second compound 10 µM, first compound 0.00316 µM) 0.11% | viability, T/C (second compound 10 µM, first compound 0.01 µM) 0.12% | viability, T/C [5] 0.17%
< 0.1 nM: IC50 (second compound 3.16 µM) | IC50 (second compound 10 µM)
23.9 nM: IC50 (second compound 0.1 µM)

COC(=O)c1ccc2c(C(=Nc3ccc(N(C)C(=O)CN4CCN(C)CC4)cc3)c3ccccc3)c(O)[nH]c2c1 + CNCc1ccccc1-c1csc(C(C)Nc2nc(C)nc3cc(OC)c(OC)cc23)c1
< 31.6 nM: IC50 (second compound 3.16 µM) | IC50 (second compound 10 µM)
567 nM: IC50 (second compound 0.1 µM)
inactive: viability, T/C [1] 84.2% | viability, T/C [6] 82.4% | viability, T/C [7] 77.7% | viability, T/C [8] 23.2% | viability, T/C [2] 62% | viability, T/C [11] 86.3% | viability, T/C [12] 97.5% | viability, T/C [13] 58.4% | viability, T/C [3] 75.7% | viability, T/C [16] 78.2% | viability, T/C [17] 87% | viability, T/C [18] 47.3% | viability, T/C [4] 23% | viability, T/C [21] 38.6% | viability, T/C [22] 0.57%
1180 nM: IC50 (second compound 0.316 µM)
active: viability, T/C [9] 0.18% | viability, T/C [10] 0.19% | viability, T/C [14] 0.13% | viability, T/C [15] 0.2% | viability, T/C [19] 0.9% | viability, T/C [20] 0.21% | viability, T/C [23] 0.22% | viability, T/C [24] 0.13% | viability, T/C [25] 0.21% | viability, T/C [5] 2.62% | viability, T/C [26] 0.25% | viability, T/C [27] 1.09% | viability, T/C [28] 0.18% | viability, T/C [29] 0.17% | viability, T/C [30] 0.26%
910 nM: IC50 (second compound 1 µM)

COc1cc(Nc2ncc3c(n2)-c2ccc(Cl)cc2C(c2c(F)cccc2OC)=NC3)ccc1C(=O)O + CNCc1ccccc1-c1csc(C(C)Nc2nc(C)nc3cc(OC)c(OC)cc23)c1
inactive: viability, T/C [1] 95.3% | viability, T/C [6] 178% | viability, T/C [7] 165% | viability, T/C [8] 150% | viability, T/C [9] 167% | viability, T/C [10] 155% | viability, T/C [2] 132% | viability, T/C [11] 145% | viability, T/C [12] 124% | viability, T/C [13] 140% | viability, T/C [14] 147% | viability, T/C [15] 134% | viability, T/C [3] 108% | viability, T/C [16] 123% | viability, T/C [17] 159% | viability, T/C [18] 156% | viability, T/C [19] 142% | viability, T/C [20] 120%
active: viability, T/C [4] 0.27% | viability, T/C [21] 2.41% | viability, T/C [22] 15.8% | viability, T/C [23] 0.43% | viability, T/C [24] 0.37% | viability, T/C [25] 4.13% | viability, T/C [5] 0.16% | viability, T/C [26] 0.15% | viability, T/C [27] 0.17% | viability, T/C [28] 0.16% | viability, T/C [29] 0.17% | viability, T/C [30] 0.22%
< 31.6 nM: IC50 (second compound 3.16 µM) | IC50 (second compound 10 µM)
> 10000 nM: IC50 (second compound 0.1 µM) | IC50 (second compound 0.316 µM) | IC50 (second compound 1 µM)

O=C(c1cc(Cc2n[nH]c(=O)c3ccccc23)ccc1F)N1CCN(C(=O)C2CC2)CC1 + CNCc1ccccc1-c1csc(C(C)Nc2nc(C)nc3cc(OC)c(OC)cc23)c1
active: viability, T/C [24] 1.24% | viability, T/C [25] 2.36% | viability, T/C [5] 0.23% | viability, T/C [26] 0.27% | viability, T/C [27] 0.26% | viability, T/C [28] 0.23% | viability, T/C [29] 0.19% | viability, T/C [30] 0.27%
inactive: viability, T/C [1] 102% | viability, T/C [6] 90.9% | viability, T/C [7] 81.1% | viability, T/C [8] 88.5% | viability, T/C [9] 78.6% | viability, T/C [10] 61.2% | viability, T/C [2] 90.8% | viability, T/C [11] 87.2% | viability, T/C [12] 92.6% | viability, T/C [13] 87.7% | viability, T/C [14] 77.9% | viability, T/C [15] 97.6% | viability, T/C [3] 112% | viability, T/C [16] 90.3% | viability, T/C [17] 87.8% | viability, T/C [18] 91.1% | viability, T/C [19] 104% | viability, T/C [20] 111% | viability, T/C [4] 9.5% | viability, T/C [21] 28.8% | viability, T/C [22] 40.8% | viability, T/C [23] 15.5%
< 31.6 nM: IC50 (second compound 3.16 µM) | IC50 (second compound 10 µM)
> 10000 nM: IC50 (second compound 0.1 µM) | IC50 (second compound 0.316 µM) | IC50 (second compound 1 µM)
